Laboratory results from patent US20120264703A1, “Methods And Compositions For The Treatment Of Anxiety Disorders, Including Post Traumatic Stress Disorder (PTSD) And Related Central Nervous System (CNS) Disorders” (priority 2010, published 2012).
Each block holds one compound with its values, some of them ahead of it.

Experiments:
alkaline phosphatase = target: T1, alkaline phosphatase (Bos taurus, UniProt P19111); assay: Dephosphorylation of phosphocarvedilol by alkaline phosphatase (HPLC); type: biochemical; conditions: alkaline phosphatase 1390 Units, overnight at 37° C., TRIS pH 8.1
T1 construct: purchased Sigma P0114
Procedure: The dried residue was reconstituted in a 1 mL solution of TRIS (pH 8.1, 0.05M) and NaCl (0.1M) for dephosphorylation with alkaline phosphatase. Dephosphorylation was initiated by adding 10 μL (1390 Units) of alkaline phosphatase (Sigma P0114) and incubating overnight at 37° C. 10 μL aliquots were removed and diluted to 100 μL in mobile phase before analyzing by injecting onto the HPLC column (as described above) in 20 μL amounts. After treatment with the alkaline phosphatase, a carvedilol peak with a retention time of about 14.95 minutes was detected.

male Sprague-Dawley rats = assay: Escape/avoidance behavior after tailshock stress (Example 1); type: in vivo, rat; conditions: compared to animals that did not receive medication
From the text: Subjects are male, Sprague-Dawley (SD) rats. They are approximately 60-days-old and 300-350 g at the time of testing. They are maintained on ad lib food and water except during the stress and escape/avoidance sessions. Subjects are maintained on a 12:12 light/dark cycle, with lights on at 0700. […] The animals that receive shocks are restrained in plastic tubes (Harvard Apparatus, Inc, Holliston, Mass., USA) and have tail electrodes attached. The single shock session consists of forty 3-s, 2-mA tailshocks, presented on a variable time (VT) 3-min schedule, making the shock session approximately 2 h in duration. Escape/avoidance sessions are conducted in 4 operant chambers (Coulbourn, Inc, Allentown, Pa., USA). The chambers are 30.5 cm wide×25.4 cm deep×30.5 cm high and have a lever mounted on one wall. Subjects are allowed approximately 1 min to explore the chamber before the session begins. The trial begins with a warning signal and houselight. […] 60 s of the warning signal, they receive 1.0-mA footshock through the grid floor. […] A […] shock is classified as an “escape”, while a response that occurred during the initial 60 s of the warning signal before the shock is classified as an “avoidance.” The number of escape and avoidance responses by hour across the session, percent avoidance, and the number of leverpresses during the safety period (a putative measure of anxiety) are analyzed. […]

[1] = cited from earlier work
[2] = low solubility and low absorption; cited from earlier work
[3] = Clinical trial of carvedilol versus placebo in PTSD: adverse events, blood pressure, heart rate; type: in vivo, human
From the text: The efficacy of carvedilol was examined in a clinical trial using a parallel group, randomized, double-blind method with 50% of the outpatients receiving a flexible dose of alpha and beta blocker carvedilol for treatment of PTSD and the other 50% receiving a flexible close of matching placebo tablets. The trial consisted of a one week screening period followed by baseline symptom measurement and five weeks of PTSD pharmacotherapy. Patient assessments took place each week throughout the course of the trial. At the baseline visit, all patients were titrated to one dose of 3.125 mg carvedilol or placebo in the morning and an additional dose in the evening for the first week of the trial (6.25 mg carvedilol per day). At the discretion of the investigator the dose of carvedilol or placebo could be increased to a maximum of two tablets (6.250 mg carvedilol) in the morning and two tablets (6.250 mg carvedilol) in the evening during the following visit (week 1). At the week 2 visit the investigator could increase the dose of carvedilol or placebo to a maximum of 5 pills daily (15.625 mg carvedilol per day) based on patient tolerability and treatment response. After the second visit investigators were encouraged to maintain patient dose throughout the remainder of the five week trial although they were allowed to decrease the dose in the event that tolerability issues arose.

[4] = Pharmacokinetic properties of carvedilol by oral dosage form and transdermal patch (Example 6); type: in vivo, human
Procedure: The pharmacokinetic properties of orally and transdermal patch delivered carvedilol can be measured in a human subject or animal model using standard procedures. In brief, a carvedilol oral dosage form of between 5-15 mg can be administered to a human subject in a tablet or capsule. A similar dosage can be administered to a human subject from a transdermal patch that is formulated and evaluated for skin permeation (such as as described by Ubaidulla et al., 2007). After administration of carvedilol, blood samples are drawn from the subject at time intervals (such as 1, 2, 3, 5, 8, 12, and 24 hours), plasma is separated by centrifugation, and plasma samples are stored at −70° C. until analyzed. The plasma carvedilol concentration is measured by reverse phase-high performance liquid chromatography (Ubaidulla et al., 2007).
The plasma concentration of carvedilol at different time intervals is subjected to pharmacokinetic analysis to calculate various parameters: maximum plasma concentration (Cmax), time to reach maximum concentration (Tmax), and area under the plasma concentration-time curve (AUC0→24) as described (Ubaidulla et al., 2007). The values of Cmax and Tmax are read directly from the arithmetic plot of time vs plasma concentration of carvedilol. The AUC is calculated by using the trapezoidal rule. […]

[5] = in vivo; cited from earlier work
[6] = tested on: patients with Post Traumatic Stress Disorder (PTSD); assay: Clinical trial of carvedilol versus placebo in the treatment of PTSD (efficacy scales); type: in vivo, human; set-up: key to Davidson Trauma Scale (DTS) change score / mean change score (DTS): change in DTS total score (34-item patient-rated, max 136); key to Insomnia Severity Index (ISI) change score: change in ISI score (self-rated 7-item scale, max 28); key to Davidson Trauma Scale (DTS) change score, mean change (SD): mean (SD) change in DTS total score (max 136); conditions: for Clinician Administered PTSD Scale (CAPS II) change score: completer only analysis
From the text: The efficacy of carvedilol was examined in a clinical trial using a parallel group, randomized, double-blind method with 50% of the outpatients receiving a flexible dose of alpha and beta blocker carvedilol for treatment of PTSD and the other 50% receiving a flexible close of matching placebo tablets. The trial consisted of a one week screening period followed by baseline symptom measurement and five weeks of PTSD pharmacotherapy. Patient assessments took place each week throughout the course of the trial. Patients between 18 and 70 years of age were eligible for enrollment. A minimum score of 60 was required on the Clinician Administered PTSD Scale (CAPS-II) at the screening visit and all patients met clinical criteria for PTSD in accordance with the Diagnostic and Statistical Manual IV and confirmed by the Mini International Neuropsychological Interview (MINI). Eighty-three subjects were enrolled and randomized to carvedilol or placebo. […] The final efficacy analysis included 38 patients allocated to carvedilol, and 39 patients allocated to placebo. All of the patients, study coordinators, and principal investigators were blinded from the patient treatment allocation. Patients were randomly assigned to kits containing carvedilol or placebo at the baseline visit. At the baseline visit, all patients were titrated to one dose of 3.125 mg carvedilol or placebo in the morning and an additional dose in the evening for the first week of the trial (6.25 mg carvedilol per day). At the discretion of the investigator the dose of carvedilol or placebo could be increased to a maximum of two tablets (6.250 mg carvedilol) in the morning and two tablets (6.250 mg carvedilol) in the evening during the following visit (week 1). At the week 2 visit the investigator could increase the dose of carvedilol or placebo to a maximum of 5 pills daily (15.625 mg carvedilol per day) based on patient tolerability and treatment response. After the second visit investigators were encouraged to maintain patient dose throughout the remainder of the five week trial although they were allowed to decrease the dose in the event that tolerability issues arose. Although a minimum score of 60 on the CAPS-II was required at the screening visit as entry criteria, the Davidson Trauma Scale (DTS) was used as primary outcome measurement. The DTS is a 34-item patient rated scale with a maximum total score of 136. The DTS is designed to measure frequency and severity of three subtypes of PTSD symptoms: intrusion, avoidance and hyperarousal. Patients completed the DTS at the baseline visit and at each visit throughout the course of the trial. Secondary outcome measures included the Insomnia Severity Index (ISI), the Clinician Global Impressions (CGI) Scale, and each of the three DTS subscales. The ISI is a self-rated 7-item scale (maximum score=28) designed to measure insomnia during clinical research. The ISI was completed at each visit throughout the trial. The CGI was also completed during each visit. As an additional secondary outcome, the change in CAPS-II score was evaluated from the screening visit to the last trial visit for patients that completed the trial. The trial data analysis was designed to investigate the hypothesis that carvedilol would provide relief from symptoms for patients clinically diagnosed with PTSD. To evaluate this possibility, an analysis of covariance (ANCOVA) test was conducted on the primary outcome variable and a series of independent samples t tests were conducted on secondary outcome variables. Each statistical test was conducted using SPSS version 19.0 (IBM). All patients that completed the baseline visit and at least one follow up measurement were included in the analysis. […] Therefore, the final completed measurement of PTSD symptoms was used as the end data point in the event that patients terminated from the trial early. […]

[7] = males and females that were not veterans
[8] = males and females that were not veterans (n=31)

T1 sequence (P19111 20-506): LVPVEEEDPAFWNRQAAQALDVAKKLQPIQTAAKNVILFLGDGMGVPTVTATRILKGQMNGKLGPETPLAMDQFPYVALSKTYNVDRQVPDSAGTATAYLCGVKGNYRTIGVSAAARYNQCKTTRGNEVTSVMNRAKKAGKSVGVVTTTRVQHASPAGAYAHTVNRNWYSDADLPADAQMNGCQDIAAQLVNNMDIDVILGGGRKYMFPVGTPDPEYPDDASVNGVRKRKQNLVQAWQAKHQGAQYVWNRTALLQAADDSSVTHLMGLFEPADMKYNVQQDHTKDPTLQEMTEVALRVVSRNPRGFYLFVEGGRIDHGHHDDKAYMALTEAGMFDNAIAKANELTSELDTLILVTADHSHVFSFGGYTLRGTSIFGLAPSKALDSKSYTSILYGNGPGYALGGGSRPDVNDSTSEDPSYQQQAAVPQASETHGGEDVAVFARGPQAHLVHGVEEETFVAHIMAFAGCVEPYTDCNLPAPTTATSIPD

generation of carvedilol by enzymatic dephosphorylation (HPLC) (alkaline phosphatase): the carvedilol HPLC peak reappeared
Compound: COc1ccccc1OCCNCC(COc1cccc2[nH]c3ccccc3c12)OP(=O)([O-])[O-].[Na+].[Na+] (stereo not drawn)

Cmax, oral versus transdermal patch administration ([4]; oral and transdermal patch): approximately similar
AUC, transdermal patch relative to oral administration ([4]; transdermal patch vs oral): 2.5 to 3 fold
Compound: COc1ccccc1OCCNCC(O)COc1cccc2[nH]c3ccccc3c12 (racemic) [carvedilol, (±) 1-(9H-carbazol-4-yloxy)-3-[[2(2-methoxyphenoxy)ethyl]amino]-2-propanol]
number of avoidance responses 24 h after tailshock (male Sprague-Dawley rats): decrease in the number of avoidance response 24 h later
logarithmic partition coefficient, log octanol/buffer pH 7.4 [1]: 0.61±0.06
Biopharmaceutics Classification System class [2]: Class 4
patients that reported adverse events ([3]; 28 patients assigned to carvedilol): 66%
mean change in diastolic blood pressure ([3]; baseline visit to end of study): −0.7 mm Hg
mean change in heart rate ([3]; baseline visit to end of study): −3.7 beats/minute
mean change in systolic blood pressure ([3]; baseline visit to end of study): −4.3±9.7 mm Hg
adverse events that occurred in over 5% of carvedilol patients ([3]; human, in vivo): somnolence, headache and common cold
plasma half-life [5]: approximately 6 hours
mean change score (DTS) ([6]; 15 female assault victims (physical or sexual assault)): −31.8
mean DTS change score ([6]; all patients assigned to carvedilol (n=38), baseline to final visit, LOCF, 6.25-15.625 mg per day, five weeks): −24.6 (SD±23.8)
effect size d, change score, carvedilol vs placebo ([6]; female assault victims): 0.95
effect size d, DTS Avoidance Subscale, carvedilol vs placebo [6, 7]: d = 0.21
effect size d, DTS Hyperarousal Subscale, carvedilol vs placebo [6, 7]: d = 0.18
effect size d, DTS Intrusiveness Subscale, carvedilol vs placebo [6, 7]: d = 0.61
effect size d, DTS change score, carvedilol vs placebo [6, 7]: d = 0.36
effect size d, Insomnia Severity Index, carvedilol vs placebo [6, 7]: d = 0.47
DTS Avoidance Subscale change score [6, 8]: −8.7 ± 12.4
DTS Hyperarousal Subscale change score [6, 8]: −7.7 ± 6.3
DTS Intrusiveness Subscale change score [6, 8]: −8.8 ± 8.8
Insomnia Severity Index (ISI) change score [6, 8]: −5.8 ± 6.8
Davidson Trauma Scale (DTS) change score, mean change (SD) ([6]; males and females that were not veterans (n=31, 69% female), LOCF): −25.2 ± 25.3
Clinician Administered PTSD Scale (CAPS II) change score [6, 7]: −20.6 ± 22.2
Clinician's Global Impression (CGI) change score ([6]; men (n=17)): −1.2 ± 1.3
DTS Avoidance Subscale change score ([6]; men (n=17)): −6.4 ± 8.3
DTS Hyperarousal Subscale change score ([6]; men (n=17)): −6.6 ± 7.4
DTS Intrusiveness Subscale change score ([6]; men (n=17)): −5.9 ± 7.5
Insomnia Severity Index (ISI) change score ([6]; men (n=17)): −6.8 ± 6.7
Davidson Trauma Scale (DTS) change score ([6]; men (n=17), baseline to final visit, LOCF): −18.8 (SD±19.1)
Davidson Trauma Scale (DTS) change score ([6]; men (n=17), baseline to final visit, LOCF, listed as Carvedilol): −18.8 ± 19.1
Clinician Administered PTSD Scale (CAPS II) change score ([6]; men, screening visit to week 7 final visit): −16.2 ± 19.0
Clinician's Global Impression (CGI) change score ([6]; women (n=21)): −1.8 ± 0.2
DTS Avoidance Subscale change score ([6]; women (n=21)): −10.4 ± 14.0
DTS Hyperarousal Subscale change score ([6]; women (n=21)): −9.0 ± 8.9
DTS Intrusiveness Subscale change score ([6]; women (n=21)): −9.9 ± 8.2
Insomnia Severity Index (ISI) change score ([6]; women (n=21)): −5.1 ± 6.3
Davidson Trauma Scale (DTS) change score ([6]; women (n=21), baseline to final visit, LOCF): −29.2 (SD±26.5)
Davidson Trauma Scale (DTS) change score ([6]; women (n=21), baseline to final visit, LOCF, listed as Carvedilol): −29.2 ± 26.5
Clinician Administered PTSD Scale (CAPS II) change score ([6]; women, screening visit to week 7 final visit): −21.7 ± 25.2
